Like-named read-outs stand apart in the source and are kept apart here.
Tests used:
[1] = target: human TRPV1 (Homo sapiens, UniProt Q8NER1); assay: TRPV1 agonist and antagonist Ca2+ flux assay (FLIPR, Fluo-8) in HEK293 cells stably expressing human TRPV1; format: cell-based
[2] = target: TRPM8 (Homo sapiens, UniProt Q7Z2W7); assay: TRPM8 antagonist activity by Fura-2 Ca2+ imaging in HEK-293 cells stably expressing human TRPM8; format: cell-based; conditions: for IC50: read-out: Functional Activity hTRPM8 potency IC50 ± SEM
Sequence of TRPM8 (Q7Z2W7 whole entry): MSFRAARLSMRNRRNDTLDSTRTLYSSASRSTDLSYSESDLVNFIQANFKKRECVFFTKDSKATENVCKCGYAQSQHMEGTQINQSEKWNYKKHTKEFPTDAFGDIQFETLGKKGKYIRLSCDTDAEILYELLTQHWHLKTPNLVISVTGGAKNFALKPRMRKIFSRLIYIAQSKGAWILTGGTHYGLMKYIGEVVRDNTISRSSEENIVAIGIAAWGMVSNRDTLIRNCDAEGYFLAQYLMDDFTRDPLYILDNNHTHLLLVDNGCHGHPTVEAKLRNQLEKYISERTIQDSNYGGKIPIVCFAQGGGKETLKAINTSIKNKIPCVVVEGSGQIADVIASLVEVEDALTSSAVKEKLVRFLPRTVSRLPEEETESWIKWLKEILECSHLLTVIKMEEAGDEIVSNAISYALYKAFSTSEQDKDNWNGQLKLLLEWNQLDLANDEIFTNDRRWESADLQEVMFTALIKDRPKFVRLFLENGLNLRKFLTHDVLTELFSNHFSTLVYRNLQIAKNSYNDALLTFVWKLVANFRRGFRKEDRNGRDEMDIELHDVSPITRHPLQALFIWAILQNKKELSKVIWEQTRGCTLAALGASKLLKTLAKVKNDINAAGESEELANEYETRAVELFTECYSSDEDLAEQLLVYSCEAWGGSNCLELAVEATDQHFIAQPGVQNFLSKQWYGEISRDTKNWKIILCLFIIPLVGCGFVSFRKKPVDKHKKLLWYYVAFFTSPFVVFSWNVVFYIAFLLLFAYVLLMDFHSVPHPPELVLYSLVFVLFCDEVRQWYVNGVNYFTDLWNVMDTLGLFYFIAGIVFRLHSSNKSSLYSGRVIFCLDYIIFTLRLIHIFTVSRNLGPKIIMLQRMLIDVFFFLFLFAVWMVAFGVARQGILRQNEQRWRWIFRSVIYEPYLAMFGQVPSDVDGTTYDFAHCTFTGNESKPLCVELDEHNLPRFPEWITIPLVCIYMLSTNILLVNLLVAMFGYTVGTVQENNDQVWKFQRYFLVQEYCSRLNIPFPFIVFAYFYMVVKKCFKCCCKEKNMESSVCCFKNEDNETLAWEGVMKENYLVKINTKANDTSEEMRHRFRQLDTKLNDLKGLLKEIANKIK

[3] = target: human TRPA1 (Homo sapiens, UniProt O75762); assay: TRPA1 agonist and antagonist Ca2+ flux assay (FLIPR, Fluo-8) in HEK293 cells stably expressing human TRPA1; format: cell-based
Sequence of human TRPA1 (O75762 whole entry): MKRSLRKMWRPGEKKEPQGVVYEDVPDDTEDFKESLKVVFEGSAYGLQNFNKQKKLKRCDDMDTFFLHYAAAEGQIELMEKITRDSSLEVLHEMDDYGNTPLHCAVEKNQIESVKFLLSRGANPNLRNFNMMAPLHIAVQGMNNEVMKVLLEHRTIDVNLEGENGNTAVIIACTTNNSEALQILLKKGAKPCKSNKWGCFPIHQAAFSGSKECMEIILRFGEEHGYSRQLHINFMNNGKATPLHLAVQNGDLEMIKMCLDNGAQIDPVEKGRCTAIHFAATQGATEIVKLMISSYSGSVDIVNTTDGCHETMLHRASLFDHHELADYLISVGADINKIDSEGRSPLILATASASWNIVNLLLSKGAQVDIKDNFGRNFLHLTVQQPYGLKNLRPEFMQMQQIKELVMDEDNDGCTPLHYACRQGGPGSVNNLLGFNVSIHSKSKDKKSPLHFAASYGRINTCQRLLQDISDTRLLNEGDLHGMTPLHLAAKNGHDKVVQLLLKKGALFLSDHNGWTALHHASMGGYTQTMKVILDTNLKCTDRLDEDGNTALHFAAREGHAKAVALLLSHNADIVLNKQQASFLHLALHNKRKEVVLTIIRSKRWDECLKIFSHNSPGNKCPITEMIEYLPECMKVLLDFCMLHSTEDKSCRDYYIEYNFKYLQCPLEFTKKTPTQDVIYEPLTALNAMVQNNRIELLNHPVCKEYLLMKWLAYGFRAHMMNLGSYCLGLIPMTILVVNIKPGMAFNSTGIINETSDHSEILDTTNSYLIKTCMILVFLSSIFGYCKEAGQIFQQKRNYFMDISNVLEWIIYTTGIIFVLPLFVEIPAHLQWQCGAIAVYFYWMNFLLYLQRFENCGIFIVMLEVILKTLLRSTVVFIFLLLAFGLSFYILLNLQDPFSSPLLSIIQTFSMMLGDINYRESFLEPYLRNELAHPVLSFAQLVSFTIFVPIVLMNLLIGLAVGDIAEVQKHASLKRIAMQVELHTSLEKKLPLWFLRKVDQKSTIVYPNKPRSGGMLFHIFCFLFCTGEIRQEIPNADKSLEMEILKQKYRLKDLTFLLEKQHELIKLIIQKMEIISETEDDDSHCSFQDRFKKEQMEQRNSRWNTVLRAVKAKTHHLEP

[4] = system: rat and human TRPM8; conditions: literature; read-out: IC50 values against menthol, icilin and cold activation at rat and human TRPM8; cited from earlier work
[5] = HEK293; read-out: hTRPV1 % Inhibition (n = 3)
[6] = at concentrations 13- to 25-fold higher than hTRPM8 IC50
[7] = tested at 100 nM; normalized to Emax of capsaicin (3 μM)
[8] = inhibition of icilin (500 nM)-evoked Ca2+ entry, HEK-293 cells stably expressing hTRPM8, mean ± SEM, three independent experiments
[9] = HEK293; read-out: hTRPA1 % Inhibition (n = 3)
[10] = tested at 100 nM; normalized to Emax of AITC (300 μM)
[11] = tested at 1 μM; normalized to Emax of capsaicin (3 μM)
[12] = tested at 1 μM; normalized to Emax of AITC (300 μM)
[13] = HEK293, read-out: hTRPV1 % Inhibition (n = 3)
[14] = HEK293, read-out: hTRPA1 % Inhibition (n = 3)

Sequence of human TRPV1 (Q8NER1 whole entry): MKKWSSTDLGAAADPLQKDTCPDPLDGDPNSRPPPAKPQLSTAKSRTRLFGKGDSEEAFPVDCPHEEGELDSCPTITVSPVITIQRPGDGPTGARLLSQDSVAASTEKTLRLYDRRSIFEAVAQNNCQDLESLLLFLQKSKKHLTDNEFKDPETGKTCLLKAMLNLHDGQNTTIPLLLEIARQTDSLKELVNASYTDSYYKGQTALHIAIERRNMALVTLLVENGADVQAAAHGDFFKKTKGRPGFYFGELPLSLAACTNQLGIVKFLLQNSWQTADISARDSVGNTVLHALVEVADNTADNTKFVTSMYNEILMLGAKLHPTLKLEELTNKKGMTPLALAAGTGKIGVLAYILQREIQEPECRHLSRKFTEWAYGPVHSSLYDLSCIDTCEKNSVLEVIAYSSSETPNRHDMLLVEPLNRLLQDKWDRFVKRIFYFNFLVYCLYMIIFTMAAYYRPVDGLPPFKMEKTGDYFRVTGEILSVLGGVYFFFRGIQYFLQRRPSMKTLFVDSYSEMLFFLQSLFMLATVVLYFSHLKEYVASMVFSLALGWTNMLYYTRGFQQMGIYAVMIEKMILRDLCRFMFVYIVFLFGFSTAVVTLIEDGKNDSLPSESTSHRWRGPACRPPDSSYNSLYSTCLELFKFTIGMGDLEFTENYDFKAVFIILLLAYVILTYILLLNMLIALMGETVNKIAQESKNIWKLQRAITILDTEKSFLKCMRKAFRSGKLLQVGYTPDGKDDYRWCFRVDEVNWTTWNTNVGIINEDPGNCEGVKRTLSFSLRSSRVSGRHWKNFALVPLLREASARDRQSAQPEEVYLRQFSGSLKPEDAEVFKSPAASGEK

| SMILES | inhibition at 0.1 µM [1, 5] [%] | hTRPV1 % Activation (n = 3) [1, 7] [%] | IC50 [2, 8] [µM] | inhibition at 0.1 µM [3, 9] [%] | hTRPA1 % Activation (n = 3-5) [3, 10] [%] | inhibition at 1 µM [1, 5] [%] | hTRPV1 % Activation (n = 3) [1, 11] [%] | inhibition at 1 µM [3, 9] [%] | hTRPA1 % Activation (n = 3-5) [3, 12] [%] | effect on hTRPV1-mediated responses (intrinsic and antagonist activity) [1, 6] | IC50 [2] [µM] | effect on hTRPA1-mediated responses (intrinsic and antagonist activity) [3, 6] | other results |
| --- | --- | --- | --- | --- | --- | --- | --- | --- | --- | --- | --- | --- | --- |
| O=C(NC1CCC2CCCCC2C1)c1ccc(-c2ccccc2)cc1 (mixture of isomers) [Compound 10, N-(decahydronaphthalen-2-yl)-[1,1′-biphenyl]-4-carboxamide] | 2 ± 3 | 2.3 ± 0.9 | 0.006 ± 0.001 | -1 ± 10 | −1.1 ± 0.2 |  |  |  |  | does not activate or inhibit | ≤ 0.01 | does not activate or inhibit | inhibition at 0.01 µM [1, 5]: -13 ± 4%; hTRPV1 % Activation (n = 3) ([1]; tested at 10 nM; normalized to Emax of capsaicin (3 μM)): 2.4 ± 0.8%; enhancement of TRPM8 potency relative to Compound 8 ([2]; icilin Ca2+ assay): 3,500 fold; higher potency than Compound 5 and Compound 7 ([2]; icilin Ca2+ assay): 10 fold; inhibition at 0.01 µM [3, 9]: -8 ± 3%; hTRPA1 % Activation (n = 3-5) ([3]; tested at 10 nM; normalized to Emax of AITC (300 μM)): 0.2 ± 0.4% |
| C[C@H](NC(=O)N1CCc2cccnc2[C@H]1c1ccc(C(F)(F)F)cc1)C(F)(F)F [AMG2850] |  |  |  |  |  |  |  |  |  |  |  |  | IC50 [4]: 0.007 to 0.156 µM |
| O=C(NC1CCc2ccccc2C1)c1ccc(-c2ccccc2)cc1 (stereo not drawn) [Compound 11, N-(1,2,3,4-tetrahydronaphthalen-2-yl)-[1,1′-biphenyl]-4-carboxamide] |  | −1.8 ± 0.9 |  |  | −0.1 ± 0.5 |  | −0.7 ± 1.5 |  | −0.8 ± 0.6 |  | 0.052 ± 0.001 |  | inhibition at 0.1 µM [1, 13]: -3.1 ± 0.6%; inhibition at 1 µM [1, 13]: 13 ± 3%; decrease of hTRPM8 potency (vs. Compound 10) ([2]; icilin Ca2+ assay): 9 fold; inhibition at 0.1 µM [3, 14]: 3 ± 6%; inhibition at 1 µM [3, 14]: 4 ± 1% |

Further lines, with some results ahead:

| inhibition at 0.1 µM [1, 5] [%] | hTRPV1 % Activation (n = 3) [1, 7] [%] | IC50 [2, 8] [µM] | inhibition at 0.1 µM [3, 9] [%] | hTRPA1 % Activation (n = 3-5) [3, 10] [%] | inhibition at 1 µM [1, 5] [%] | hTRPV1 % Activation (n = 3) [1, 11] [%] | inhibition at 1 µM [3, 9] [%] | hTRPA1 % Activation (n = 3-5) [3, 12] [%] | SMILES | effect on hTRPV1-mediated responses (intrinsic and antagonist activity) [1, 6] | IC50 [2] [µM] | effect on hTRPA1-mediated responses (intrinsic and antagonist activity) [3, 6] | other results |
| --- | --- | --- | --- | --- | --- | --- | --- | --- | --- | --- | --- | --- | --- |
| -3 ± 4 | 0.0 ± 1.0 | 0.052 ± 0.001 | -2 ± 5 | 0.1 ± 0.7 | 24 ± 1 | 0.6 ± 1.5 | 4 ± 5 | 0.8 ± 0.5 | O=C(NC1CCCCCC1)c1ccc(-c2ccccc2)cc1 [Compound 5, N-cycloheptyl-[1,1′-biphenyl]-4-carboxamide] |  |  |  |  |
| -4 ± 4 | −1.9 ± 0.7 | 0.062 ± 0.001 | -13 ± 4 | −1.0 ± 0.1 | 14 ± 4 | −3.2 ± 0.6 | 0.2 ± 6 | −1.5 ± 0.9 | O=C(NC1CCCCCCC1)c1ccc(-c2ccccc2)cc1 [Compound 7, N-cyclooctyl-[1,1′-biphenyl]-4-carboxamide] |  |  |  |  |
| -3 ± 4 | −1.0 ± 0.4 | 0.04 ± 0.001 | -1 ± 5 | 0.2 ± 0.5 | 5 ± 2 | 0.7 ± 0.2 | -7 ± 9 | −0.2 ± 1.1 | O=C(NC1CCC2(CCCCC2)CC1)c1ccc(-c2ccccc2)cc1 [Compound 13, N-(spiro[5.5]undecan-3-yl)-[1,1′-biphenyl]-4-carboxamide] | do not affect |  | do not affect |  |
